Columns and labels:
[1] = biological target: Coagulation factor X (Homo sapiens) (UniProt P00742); test: Binding affinity as apparent association constant for human coagulation factor X
[2] = biological target: Thrombin and coagulation factor X (Homo sapiens) (UniProt P00734+P00742); test: Anticoagulant potency against double prothrombin time; type: functional
[3] = biological target: Serine protease 1 (Homo sapiens) (UniProt P07477); test: Binding affinity as apparent association constant for Trypsin
Sequence of Serine protease 1 (Homo sapiens) (P07477 whole entry): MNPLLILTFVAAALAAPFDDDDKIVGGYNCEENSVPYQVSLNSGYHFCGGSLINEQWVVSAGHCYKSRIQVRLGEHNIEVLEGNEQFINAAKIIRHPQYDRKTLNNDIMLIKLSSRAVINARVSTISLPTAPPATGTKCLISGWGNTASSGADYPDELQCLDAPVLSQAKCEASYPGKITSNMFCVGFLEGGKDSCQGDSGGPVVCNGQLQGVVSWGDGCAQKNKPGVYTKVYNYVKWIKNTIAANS

[4] = biological target: Prothrombin (Homo sapiens) (UniProt P00734); test: Binding affinity as apparent association constant for Coagulation factor II
[5] = biological target: Urokinase-type plasminogen activator (Homo sapiens) (UniProt P00749); test: Binding affinity as apparent association constant for Urokinase
[6] = biological target: Plasminogen (Homo sapiens) (UniProt P00747); test: Binding affinity as apparent association constant for Plasmin
Sequence of Plasminogen (Homo sapiens) (P00747 97-580 limits assumed): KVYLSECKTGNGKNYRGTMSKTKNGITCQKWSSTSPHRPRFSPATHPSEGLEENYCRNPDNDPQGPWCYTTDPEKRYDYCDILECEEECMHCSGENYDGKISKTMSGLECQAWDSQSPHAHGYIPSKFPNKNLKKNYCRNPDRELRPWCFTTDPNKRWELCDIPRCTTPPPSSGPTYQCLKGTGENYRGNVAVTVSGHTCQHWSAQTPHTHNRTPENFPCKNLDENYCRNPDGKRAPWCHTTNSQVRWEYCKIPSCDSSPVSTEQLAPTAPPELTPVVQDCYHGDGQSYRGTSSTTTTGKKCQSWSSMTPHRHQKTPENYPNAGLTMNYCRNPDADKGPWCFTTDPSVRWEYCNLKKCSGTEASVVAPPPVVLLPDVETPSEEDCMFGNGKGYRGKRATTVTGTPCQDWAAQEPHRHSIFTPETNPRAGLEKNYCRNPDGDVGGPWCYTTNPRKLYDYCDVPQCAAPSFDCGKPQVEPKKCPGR
Sequence of Plasminogen (Homo sapiens) (P00747 581-810 limits assumed): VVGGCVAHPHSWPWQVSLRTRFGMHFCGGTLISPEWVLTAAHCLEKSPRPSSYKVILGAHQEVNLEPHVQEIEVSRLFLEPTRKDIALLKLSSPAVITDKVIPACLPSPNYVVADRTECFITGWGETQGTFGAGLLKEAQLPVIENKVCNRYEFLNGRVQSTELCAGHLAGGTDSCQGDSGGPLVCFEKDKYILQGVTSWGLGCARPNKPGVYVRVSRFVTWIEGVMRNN

[7] = biological target: Tissue-type plasminogen activator (Homo sapiens) (UniProt P00750); test: Binding affinity as apparent association constant for Tissue plasminogen activator
Sequence of Tissue-type plasminogen activator (Homo sapiens) (P00750 36-562 limits assumed): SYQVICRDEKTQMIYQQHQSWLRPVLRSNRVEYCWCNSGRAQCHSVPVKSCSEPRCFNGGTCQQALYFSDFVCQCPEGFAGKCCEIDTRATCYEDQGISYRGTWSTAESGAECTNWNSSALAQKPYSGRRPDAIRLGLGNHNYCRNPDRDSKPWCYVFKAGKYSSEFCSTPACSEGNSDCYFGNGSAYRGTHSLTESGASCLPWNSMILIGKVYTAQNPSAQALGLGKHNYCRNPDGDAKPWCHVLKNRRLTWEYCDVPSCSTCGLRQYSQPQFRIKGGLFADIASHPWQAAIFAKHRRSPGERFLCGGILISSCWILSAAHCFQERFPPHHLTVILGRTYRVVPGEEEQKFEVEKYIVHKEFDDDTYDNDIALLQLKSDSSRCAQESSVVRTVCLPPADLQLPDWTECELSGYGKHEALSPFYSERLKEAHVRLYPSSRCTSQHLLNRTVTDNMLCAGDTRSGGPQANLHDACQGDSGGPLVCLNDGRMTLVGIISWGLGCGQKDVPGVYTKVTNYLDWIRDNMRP

Sequence of Thrombin and coagulation factor X (Homo sapiens) (P00742 whole entry, looked up, other chains not shown): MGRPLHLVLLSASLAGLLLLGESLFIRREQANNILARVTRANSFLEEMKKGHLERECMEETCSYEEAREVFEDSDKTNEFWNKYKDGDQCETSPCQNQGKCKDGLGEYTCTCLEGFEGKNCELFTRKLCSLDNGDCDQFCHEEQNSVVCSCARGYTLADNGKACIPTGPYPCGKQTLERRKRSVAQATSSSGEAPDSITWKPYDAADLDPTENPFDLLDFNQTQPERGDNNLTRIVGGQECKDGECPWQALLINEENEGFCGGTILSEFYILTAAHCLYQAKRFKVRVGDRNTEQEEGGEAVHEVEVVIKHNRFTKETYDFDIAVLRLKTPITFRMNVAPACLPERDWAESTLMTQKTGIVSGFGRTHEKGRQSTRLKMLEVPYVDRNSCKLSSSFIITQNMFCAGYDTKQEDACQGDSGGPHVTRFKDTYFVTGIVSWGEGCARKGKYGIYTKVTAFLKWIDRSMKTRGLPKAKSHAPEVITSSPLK
Sequence of Coagulation factor X (Homo sapiens) (P00742 41-179 limits assumed): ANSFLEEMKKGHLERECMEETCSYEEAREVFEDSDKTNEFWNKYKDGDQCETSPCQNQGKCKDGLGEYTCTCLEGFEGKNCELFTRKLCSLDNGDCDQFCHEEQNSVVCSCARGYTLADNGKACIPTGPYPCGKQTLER
Sequence of Coagulation factor X (Homo sapiens) (P00742 235-488 limits assumed): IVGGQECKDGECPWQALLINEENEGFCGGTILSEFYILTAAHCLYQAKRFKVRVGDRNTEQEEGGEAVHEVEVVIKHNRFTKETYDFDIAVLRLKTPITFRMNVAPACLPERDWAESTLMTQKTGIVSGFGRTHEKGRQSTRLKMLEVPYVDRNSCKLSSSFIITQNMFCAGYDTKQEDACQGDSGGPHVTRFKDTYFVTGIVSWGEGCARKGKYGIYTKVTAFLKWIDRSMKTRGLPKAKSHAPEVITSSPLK

Row | Compound | K ass [1] [L/mol] | PT [2] [µM] | also measured
1 | O=C(Nc1ccccc1NC(=O)C1=CCCC1)OCC1CCN(c2ccncc2)CC1 | 700000 | – | –
2 | O=C(Nc1ccccc1NC(=O)C1=CCCCC1)OCC1CCN(c2ccncc2)CC1 | 900000 | – | –
3 | O=C(Nc1ccccc1NC(=O)c1ccc(F)cc1)OCC1CCN(c2ccncc2)CC1 | 4.6e+06 | – | –
4 | COc1ccc(C(=O)Nc2ccccc2NC(=O)OCC2CCN(c3ccncc3)CC2)cc1 | 1.9e+07 | 1.9 | –
5 | CC(C)(C)c1ccc(C(=O)Nc2ccccc2NC(=O)c2cccc(C(=N)N)c2)cc1 | 2.42e+08 | 0.9 | –
6 | O=C(Nc1ccccc1NC(=O)c1ccc(Br)cc1)OCC1CCN(c2ccncc2)CC1 | 3.8e+07 | 1.8 | –
7 | COc1ccc(C(=O)Nc2ccccc2NC(=O)OCC2CCN(c3ccncc3)CC2)cc1F | 46 | 1.1 | –
8 | O=C(Nc1ccccc1NC(=O)c1ccc2c(c1)CCO2)OCC1CCN(c2ccncc2)CC1 | 600000 | – | –
9 | O=C(Nc1ccccc1NC(=O)c1cccc(Cl)c1Cl)OCC1CCN(c2ccncc2)CC1 | 1.9e+07 | 5 | –
10 | O=C(Nc1ccccc1NC(=O)c1cccc(Cl)c1)OCC1CCN(c2ccncc2)CC1 | 4.1e+06 | 12 | –
11 | O=C(Nc1ccccc1NC(=O)c1ccccc1)OCC1CCN(c2ccncc2)CC1 | 1.6e+06 | – | –
12 | COc1ccc(C(=O)Nc2ccccc2NC(=O)c2ccc(C(C)(C)C)cc2)cc1 | 7e+06 | > 50 | –
13 | O=C(Nc1ccccc1NC(=O)c1ccc(I)cc1)OCC1CCN(c2ccncc2)CC1 | 1.4e+07 | 6 | –
14 | O=C(Nc1ccccc1NC(=O)c1cccc(F)c1)OCC1CCN(c2ccncc2)CC1 | 2.5e+06 | 17 | –
15 | O=C(Nc1ccccc1NC(=O)c1ccccc1Cl)OCC1CCN(c2ccncc2)CC1 | 300000 | – | –
16 | Cc1cccc(C(=O)Nc2ccccc2NC(=O)OCC2CCN(c3ccncc3)CC2)c1 | 5.9e+06 | – | –

Row | Compound | K ass [1] [L/mol] | PT [2] [µM] | also measured
17 | O=C(Nc1ccccc1NC(=O)C1C=CCCC1)OCC1CCN(c2ccncc2)CC1 (stereo unspecified) | 200000 | – | –
18 | COc1ccccc1C(=O)Nc1ccccc1NC(=O)OCC1CCN(c2ccncc2)CC1 | 20000 | – | –
19 | Nc1cccc(C(=O)Nc2ccccc2NC(=O)OCC2CCN(c3ccncc3)CC2)c1 | 5.1e+06 | 8 | –
20 | Cc1ccc(C(=O)Nc2ccccc2NC(=O)OCC2CCN(c3ccncc3)CC2)cc1Cl | 2.3e+06 | 22 | –
21 | Cc1ccc(C(=O)Nc2ccccc2NC(=O)OCC2CCN(c3ccncc3)CC2)cc1F | 5.8e+06 | 7 | –
22 | Cc1ccc(C(=O)Nc2ccccc2NC(=O)OCC2CCN(c3ccncc3)CC2)cc1 | 6.3e+06 | 8 | –
23 | O=C(Nc1ccccc1NC(=O)c1cccc(O)c1)OCC1CCN(c2ccncc2)CC1 | 1e+06 | – | –
24 | O=C(Nc1ccccc1NC(=O)c1ccc(Cl)o1)OCC1CCN(c2ccncc2)CC1 | 700000 | – | –
25 | O=C(Nc1ccccc1NC(=O)C1CCCCC1)OCC1CCN(c2ccncc2)CC1 | 40000 | – | –
26 | O=C(Nc1ccccc1NC(=O)c1ccc(OC(F)F)cc1)OCC1CCN(c2ccncc2)CC1 | 5e+06 | 6 | –
27 | O=C(Nc1ccccc1NC(=O)c1ccc(Cl)s1)OCC1CCN(c2ccncc2)CC1 | 3.3e+07 | 2.6 | –
28 | COc1ccc(C(=O)Nc2ccccc2NC(=O)C2CCN(c3ccncc3)CC2)cc1 | 2e+06 | 9.7 | –
29 | O=C(Nc1ccccc1NC(=O)c1ccc(Cl)cc1)OCC1CCN(c2ccncc2)CC1 | 3.5e+07 | 1.9 | Ka [3]: < 10000 L/mol; Ka [4]: 20000 L/mol; Ka [5]: < 10000 L/mol; Ka [6]: < 10000 L/mol; Ka [7]: < 10000 L/mol
30 | O=C(Nc1ccccc1NC(=O)c1ccc2cc[nH]c2c1)OCC1CCN(c2ccncc2)CC1 | 5.4e+07 | 1.6 | –
31 | N#Cc1ccc(C(=O)Nc2ccccc2NC(=O)OCC2CCN(c3ccncc3)CC2)cc1 | 600000 | – | –
32 | COc1cccc(C(=O)Nc2ccccc2NC(=O)OCC2CCN(c3ccncc3)CC2)c1 | 3.3e+06 | 10 | –

— ChEMBL document CHEMBL1143475, “Investigation of factor Xa inhibitors containing non-amidine S1 elements” (Bioorg Med Chem Lett, 2005)
